≈ marks a conversion by molar mass, not a printed value. Read-outs that look alike come from different tables or passages of the source.
Tests used:
[1] = tested on: gastointestinal motility; experiment: gastrointestinal motility in sensitive animal models (general statement); type: in vivo; conditions: compared with parent erythromycin compound
[2] = tested on: Haemophilus influenzae; experiment: MIC against strains of Haemophilus influenzae; type: cell-based; conditions: Haemophilus influenzae, read-out: MIC
Protocol: Erythromycin A was used for this purpose.
After incubation, each disk is read.
In the manner of Example 23, the efficacy of compounds of this invention were tested against numerous strains of Haemophilus influenzae.

[3] = tested on: gut contractions (stomach, duodenum, jejunum); conditions: dog, in vivo, iv, 4 mg/kg
Protocol: Compounds of this invention have been tested for gastrointestinal stimulating activity in a dog model at 4 mg/kg intravenously. Contractions in the gut were recorded with surgically implanted strain gauges. […] Ratios were calculated for the stomach, duodenum and jejunum, and a final arithmetic mean index was calculated and reported in Table 1.

MIC ([2]; ATCC9006, strain ATCC 9006): 0.25 µg/mL (≈ 0.296 µM) | MIC ([2]; ATCC9795, strain ATCC 9795): 0.25 µg/mL (≈ 0.296 µM) | MIC ([2]; ATCC10211, strain ATCC 10211): 0.5 µg/mL (≈ 0.592 µM) | MIC ([2]; ATCC19418, strain ATCC 19418): 0.5 µg/mL (≈ 0.592 µM) | MIC ([2]; strain 504): 1 µg/mL (≈ 1.18 µM) | MIC ([2]; strain 519A): 0.5 µg/mL (≈ 0.592 µM) | MIC ([2]; strain 566A): 0.5 µg/mL (≈ 0.592 µM) | MIC ([2]; strain 588A): 0.25 µg/mL (≈ 0.296 µM) | MIC ([2]; strain 632A): 0.5 µg/mL (≈ 0.592 µM) | MIC ([2]; strain 667A): 0.25 µg/mL (≈ 0.296 µM) | MIC ([2]; strain 747C): 0.25 µg/mL (≈ 0.296 µM) | MIC ([2]; strain 751): 0.25 µg/mL (≈ 0.296 µM) | MIC ([2]; strain 1177): 0.5 µg/mL (≈ 0.592 µM) | MIC ([2]; strain 1435): 0.12 µg/mL (≈ 0.142 µM) | MIC ([2]; strain 5036B): 0.5 µg/mL (≈ 0.592 µM) | MIC ([2]; strain DILL AMP R): 0.25 µg/mL (≈ 0.296 µM) | MIC ([2]; strain SOL AMP R): 0.25 µg/mL (≈ 0.296 µM) | MIC ([2]; strain SPK AMP R): 0.25 µg/mL (≈ 0.296 µM) | Gastrointestinal Motility Index [3]: .013
Compound: CC[C@H]1OC(=O)[C@H](C)[C@@H](O[C@H]2C[C@@](C)(OC)[C@@H](O)[C@H](C)O2)[C@H](C)[C@@H](O[C@@H]2O[C@H](C)C[C@H](N(C)C)[C@H]2O)[C@](C)(OC)C[C@@H](C)C(=O)[C@H](C)[C@H]2N(CCN(C)C)C(=O)O[C@]12C [Example 9, 11-deoxy-6-O-methyl erythromycin A 11,12-[N-(2-dimethylamino)ethyl]cyclic carbamate]
gastointestinal motility and associated side-effects [1]: much less gastointestinal motility and associated side-effects than the parent erythromycin compound
